Results taken from paper PMC4001115 (International journal of toxicology, 2014).

Columns and labels:
[1] = Toxicokinetics: plasma DAC by LC-MS/MS after oral gavage; format: in vivo, CD-1 mice; conditions: for Cmax / AUC: plasma, po; for AUC: AUCfit
[2] = system: bone marrow polychromatic erythrocytes (PCEs); assay: Bone marrow micronucleus analysis; format: in vivo, CD-1 mice; conditions: DAC 1.0 mg/kg; for Number of MPCE/1000 PCE (Mean +/− SD): single animal
[3] = mice, 100 mg/kg po, cited from earlier work
beagle dog = conditions: single intravenous injections up to 1 g/kg; cited from earlier work
monkey = conditions: single intravenous injections up to 1 g/kg; cited from earlier work
CD-1 mice = assay: Microscopic findings; format: in vivo; conditions: THU/DAC 167/0.0 mg/kg; for Cytoplasmic Alteration, MK (Minimal): bone marrow
[4] = male, CD-1, mouse, 0.2 mg/kg, males, THU/DAC 167/0.2 mg/kg, Day 1
[5] = male, CD-1, mouse, 0.2 mg/kg, males, THU/DAC 167/0.2 mg/kg, Day 58
[6] = male, CD-1, mouse, 0.4 mg/kg, males, THU/DAC 167/0.4 mg/kg, Day 1
[7] = male, CD-1, mouse, 0.4 mg/kg, males, THU/DAC 167/0.4 mg/kg, Day 58
[8] = male, CD-1, mouse, 1 mg/kg, males, THU/DAC 0/1.0 mg/kg, Day 1
[9] = male, CD-1, mouse, 1 mg/kg, males, THU/DAC 0/1.0 mg/kg, Day 58
[10] = male, CD-1, mouse, 1 mg/kg, males, THU/DAC 167/1.0 mg/kg, Day 1
[11] = male, CD-1, mouse, 1 mg/kg, males, THU/DAC 167/1.0 mg/kg, Day 58

SMILES: Nc1ncn([C@H]2C[C@H](O)[C@@H](CO)O2)c(=O)n1 [DAC, 5-aza-2’-deoxycytidine]
- DAC detectable in plasma through (post dose) ([1]; both, CD-1, mouse, in vivo): 180 min
- DAC exposure, female mice compared to males ([1]; both, CD-1, mouse, in vivo): ~ 2 fold
- Cmax ([1]; female, CD-1, mouse, 0.2 mg/kg, females, THU/DAC 167/0.2 mg/kg, Day 1): 1900 nM
- Cmax ([1]; female, CD-1, mouse, 0.2 mg/kg, females, THU/DAC 167/0.2 mg/kg, Day 58): 960 nM
- Cmax ([1]; female, CD-1, mouse, 0.4 mg/kg, females, THU/DAC 167/0.4 mg/kg, Day 1): 2780 nM
- Cmax ([1]; female, CD-1, mouse, 0.4 mg/kg, females, THU/DAC 167/0.4 mg/kg, Day 58): 1650 nM
- Cmax ([1]; female, CD-1, mouse, 1 mg/kg, females, THU/DAC 0/1.0 mg/kg, Day 1): 2050 nM
- Cmax ([1]; female, CD-1, mouse, 1 mg/kg, females, THU/DAC 0/1.0 mg/kg, Day 58): 1230 nM
- DAC detectable in plasma through (post dose) ([1]; male, CD-1, mouse, in vivo): 120 min
- AUC [1, 4]: 1.57 µM·h
- AUC [1, 5]: 1.25 µM·h
- Cmax [1, 4]: 1180 nM
- Cmax [1, 5]: 700 nM
- AUC [1, 6]: 3.08 µM·h
- AUC [1, 7]: 2.11 µM·h
- Cmax [1, 6]: 2620 nM
- Cmax [1, 7]: 980 nM
- AUC [1, 8]: 0.864 µM·h
- AUC [1, 9]: 0.976 µM·h
- AUC [1, 10]: 7.65 µM·h
- AUC [1, 11]: 5.87 µM·h
- Cmax [1, 8]: 1750 nM
- Cmax [1, 9]: 1200 nM
- Cmax [1, 10]: 5810 nM
- Cmax [1, 11]: 4740 nM
- time of plasma DAC Cmax ([1]; oral DAC with or without THU): ≤ 1 h
- Number of MPCE/PCE Scored ([2]; F): ^*73 / 2000
- PCE/Total Erythrocytes (Mean+/−SD) ([2]; F): 0.168±0.05
- PCE/Total Erythrocytes, Change from Control ([2]; F): −65%
- Number of MPCE/1000 PCE (Mean +/− SD) ([2]; F): 36.5 ± ^1SD
- Number of MPCE/PCE Scored ([2]; M): ^*41 / 2000
- PCE/Total Erythrocytes (Mean+/−SD) ([2]; M): 0.127±0.06
- PCE/Total Erythrocytes, Change from Control ([2]; M): −73%
- Number of MPCE/1000 PCE (Mean +/− SD) ([2]; M): 20.5 ± ^1SD

SMILES: O=C1NC(O)CCN1[C@@H]1O[C@H](CO)[C@@H](O)[C@H]1O (stereo partly drawn) [THU, tetrahydrouridine]
- half life [3]: 85 min
- oral bioavailability [3]: 20%
- sustained plasma concentrations that inhibit CDA ([3]; for several hours): > 1 µg/mL
- toxic effects (beagle dog): no notable toxic effects
- toxic effects (monkey): no notable toxic effects
- Cytoplasmic Alteration, MK (Minimal) (CD-1 mice; females, Day 59): 0/10
- Cytoplasmic Alteration, MK (Minimal) (CD-1 mice; males, Day 59): 0/10
- Bone Marrow Cytoplasmic Alteration, MK, Minimal (CD-1 mice; females, Day 31): 0/6
- Bone Marrow Hypocellularity, Marked (CD-1 mice; females, Day 31): 0/6
- Bone Marrow Hypocellularity, Moderate (CD-1 mice; females, Day 31): 0/6
- Duodenum Apoptosis, Minimal-Mild (CD-1 mice; females, Day 31): 0/6
- Ileum Apoptosis, Minimal-Mild (CD-1 mice; females, Day 31): 0/6
- Jejunum Apoptosis, Minimal-Mild (CD-1 mice; females, Day 31): 0/6
- Spleen Proliferation, MK, Red Pulp, Minimal-Mild (CD-1 mice; females, Day 31): 0/6
- Thymus Depletion, Lymphoid Cortex, Marked (CD-1 mice; females, Day 31): 0/5
- Thymus Depletion, Lymphoid Cortex, Mild-Moderate (CD-1 mice; females, Day 31): 0/5
- Uterus Atrophy, Mild (CD-1 mice; females, Day 31): 0/6
- Bone Marrow Hypocellularity, Marked (CD-1 mice; females, Day 59): 0/10
- Bone Marrow Hypocellularity, Moderate (CD-1 mice; females, Day 59): 0/10
- Duodenum Apoptosis, Minimal-Mild (CD-1 mice; females, Day 59): 0/10
- Ileum Apoptosis, Minimal-Mild (CD-1 mice; females, Day 59): 0/10
- Jejunum Apoptosis, Minimal-Mild (CD-1 mice; females, Day 59): 0/10
- Spleen Proliferation, MK, Red Pulp, Minimal-Mild (CD-1 mice; females, Day 59): 0/10
- Uterus Atrophy, Mild (CD-1 mice; females, Day 59): 0/10
- Bone Marrow Cytoplasmic Alteration, MK, Minimal (CD-1 mice; males, Day 31): 0/6
- Bone Marrow Hypocellularity, Marked (CD-1 mice; males, Day 31): 0/6
- Bone Marrow Hypocellularity, Moderate (CD-1 mice; males, Day 31): 0/6
- Duodenum Apoptosis, Minimal-Mild (CD-1 mice; males, Day 31): 0/6
- Epididymides Hypospermia, Head, Marked (CD-1 mice; males, Day 31): 0/6
- Epididymides Hypospermia, Head, Minimal-moderate (CD-1 mice; males, Day 31): 0/6
- Epididymides Hypospermia, Tail, Mild-moderate (CD-1 mice; males, Day 31): 0/6
- Ileum Apoptosis, Minimal-Mild (CD-1 mice; males, Day 31): 0/6
- Jejunum Apoptosis, Minimal-Mild (CD-1 mice; males, Day 31): 0/6
- Spleen Proliferation, MK, Red Pulp, Minimal-Mild (CD-1 mice; males, Day 31): 0/6
- Testis Degeneration, Seminiferous Tubules, Marked (CD-1 mice; males, Day 31): 0/6
- Testis Degeneration, Seminiferous Tubules, Minimal-mild (CD-1 mice; males, Day 31): 0/6
- Testis Degeneration, Seminiferous Tubules, Moderate (CD-1 mice; males, Day 31): 0/6
- Thymus Depletion, Lymphoid Cortex, Marked (CD-1 mice; males, Day 31): 0/6
- Thymus Depletion, Lymphoid Cortex, Mild-Moderate (CD-1 mice; males, Day 31): 0/6
- Bone Marrow Hypocellularity, Marked (CD-1 mice; males, Day 59): 0/10
- Bone Marrow Hypocellularity, Moderate (CD-1 mice; males, Day 59): 0/10
- Duodenum Apoptosis, Minimal-Mild (CD-1 mice; males, Day 59): 0/10
- Epididymides Hypospermia, Head, Marked (CD-1 mice; males, Day 59): 0/10
- Epididymides Hypospermia, Head, Moderate (CD-1 mice; males, Day 59): 0/10
- Epididymides Hypospermia, Tail, Mild-moderate (CD-1 mice; males, Day 59): 0/10
- Ileum Apoptosis, Minimal-Mild (CD-1 mice; males, Day 59): 0/10
- Jejunum Apoptosis, Minimal-Mild (CD-1 mice; males, Day 59): 0/10
- Spleen Proliferation, MK, Red Pulp, Minimal-Mild (CD-1 mice; males, Day 59): 0/10
- Testis Degeneration, Seminiferous Tubules, Marked (CD-1 mice; males, Day 59): 0/10
- Testis Degeneration, Seminiferous Tubules, Mild-moderate (CD-1 mice; males, Day 59): 0/10
- Testis Degeneration, Seminiferous Tubules, Severe (CD-1 mice; males, Day 59): 0/10
- Thymus Depletion, Lymphoid Cortex, Marked (CD-1 mice; males, Day 59): 0/10
- Thymus Depletion, Lymphoid Cortex, Mild-Moderate (CD-1 mice; males, Day 59): 0/10
